Biological target: T1, sortase A (SrtA) (Staphylococcus aureus, UniProt Q2FV99)
T1 sequence (Q2FV99 1-206): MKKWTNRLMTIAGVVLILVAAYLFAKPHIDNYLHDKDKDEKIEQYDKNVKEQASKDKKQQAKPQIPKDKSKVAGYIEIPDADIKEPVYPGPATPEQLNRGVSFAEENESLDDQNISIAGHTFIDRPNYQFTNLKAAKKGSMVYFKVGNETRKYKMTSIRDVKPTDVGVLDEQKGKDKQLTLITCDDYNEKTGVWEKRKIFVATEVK
Assay: microscale thermophoresis with labeled purified SrtA
Format: binding

Compound: Nc1c(Cl)cccc1C(=O)Nc1ccccc1C(=O)O [compound 5, 2-(2-amino-3-chloro-benzoylamino)-benzoic acid]
- Kd: 189 µM

From paper PMC9016125 (The Journal of Antibiotics, 2022)
